From patent US6548062B2, “Method of treating cancer with anti-neurotrophin agents” (Cephalon, Inc., priority 2000, dated 2003)
pIC50: −log10 of the molar value.

Assays:
[1] = system: AsPC-1 human pancreatic tumor cells; experiment: AsPC-1 pancreatic cancer xenograft growth in nude mice; type: in vivo
Description: AsPC-1 human pancreatic tumor cells were injected subcutaneously into the flank of female athymic nude mice (nu/nu; 5×10^6 cells/mice). Upon xenografts reaching 100-500 mm^3, the mice were randomized and divided into four experimental groups. One group was administered a cocktail of neurotrophin antibodies (anti-NGF, BDNF, NT-3, and NT4/5). Each dose of antibody cocktail (100 μl) contained 100 μg of each neurotrophin antibody. The second experimental group was administered normal rabbit IgG (400 μg/100 μl; PeproTech 500-P00) as a control. All antibodies were administered intratumorally (50 μl) at five injection sites and peritumorally (50 μl) at five injection sites. […] Tumor length and width were measured every two to three days (Days 1, 3, 5, 8, 10, 12, and 15). […]
Tumor volumes were calculated as described above. The mean tumor volumes and standard errors were also calculated as described above. […] Probability values were calculated as described above. […]
Tumors were measured every 2-4 days using a vernier caliper. Tumor volumes were calculated as described above. The mean tumor volumes and standard errors were also calculated as described above. […] Statistical analyses were calculated as described above with p≦0.05 deemed significant. […]

[2] = system: CFPAC human pancreatic carcinoma cells; details: previously published data; cited from earlier work
[3] = system: AsPC-1 human pancreatic tumor cells; details: previously published data; cited from earlier work
[4] = system: TSU-Pr1 human prostate tumor cells; experiment: TSU-Pr1 prostate cancer xenograft growth in nude mice; type: in vivo; details: Experiment #1
Description: TSU-Pr1 human prostate tumor cells were injected subcutaneously into the flank of female athymic nude mice (nu/nu; 5×10^6 cells/mice). Upon xenografts reaching 100-500 mm^3, the mice were randomized and divided into four experimental groups. One group was administered a cocktail of neurotrophin antibodies (anti-NGF, BDNF, NT-3, and NT4/5). Each dose of antibody cocktail (100 μl) contained 100 μg of each neurotrophin antibody. The second experimental group was administered normal rabbit IgG (400 μg/100 μl; PeproTech 500-P00) as a control. All antibodies were administered intratumorally (50 μl) at five injection sites and peritumorally (50 μl) at five injection sites. […] Tumor length and width were measured every two to three days (Days 1, 3, 5, 8, 10, 12, and 15).
The fourth experimental group received vehicle only (100 μl) according to the dosing schedule of the third experimental group. Tumor length and width were measured every two to three days (Days 1, 3, 5, 8, 10, 12, and 15).
Tumor volumes were calculated as described above. The mean tumor volumes and standard errors were calculated as described above. […] Probability values were calculated as described above. […]
Tumor volumes were calculated as described above. The mean tumor volumes and standard errors were also calculated as described above. […] Probability values were calculated as described above.

trkA = trkA (Homo sapiens, UniProt P04629); details: ELISA (stated for CEP-751); read-out: IC50 trkA inhibition; cited from earlier work
Sequence of trkA (P04629 33-796, species assumed): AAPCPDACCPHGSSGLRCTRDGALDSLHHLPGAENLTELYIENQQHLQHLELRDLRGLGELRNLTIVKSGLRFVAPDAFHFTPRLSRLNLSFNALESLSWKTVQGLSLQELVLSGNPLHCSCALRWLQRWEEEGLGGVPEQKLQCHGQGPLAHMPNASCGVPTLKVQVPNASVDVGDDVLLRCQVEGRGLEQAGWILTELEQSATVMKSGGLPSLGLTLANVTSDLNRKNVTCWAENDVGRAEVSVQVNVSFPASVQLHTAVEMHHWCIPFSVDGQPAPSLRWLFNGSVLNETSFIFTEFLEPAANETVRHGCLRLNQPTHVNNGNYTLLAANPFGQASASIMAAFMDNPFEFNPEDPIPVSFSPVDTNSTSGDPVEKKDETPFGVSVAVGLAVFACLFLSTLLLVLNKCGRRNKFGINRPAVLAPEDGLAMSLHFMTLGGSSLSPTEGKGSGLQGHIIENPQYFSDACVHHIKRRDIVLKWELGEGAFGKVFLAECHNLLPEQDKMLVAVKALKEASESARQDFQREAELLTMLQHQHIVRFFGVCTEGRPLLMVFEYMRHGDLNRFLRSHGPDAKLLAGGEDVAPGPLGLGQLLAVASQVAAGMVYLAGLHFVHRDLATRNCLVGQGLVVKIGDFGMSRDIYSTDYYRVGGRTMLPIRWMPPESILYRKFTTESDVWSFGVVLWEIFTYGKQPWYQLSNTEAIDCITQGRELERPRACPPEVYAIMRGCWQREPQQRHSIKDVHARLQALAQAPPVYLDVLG

[5] = system: PC-3 human prostate tumor cells; experiment: PC-3 prostate cancer xenograft growth in nude mice; type: in vivo, human tumor cells in athymic nude mice; details: 10 mg/kg s.c. BID
Description: PC-3 human prostate tumor cells (5×10^6 cells/mice) were injected subcutaneously into the flank of eight to ten week old, female athymic nude mice (nu/nu; Charles River, Raleigh, N.C.). Mice weighed between 22-25 grams on the day of tumor implantation. Upon xenografts reaching 100-500 mm^3, the mice were randomized and divided into experimental groups. Some experimental groups were administered a cocktail of neurotrophin antibodies (4×25 μg each, or 4×100 μg each of anti-NGF, BDNF, NT-3, and NT4/5) or normal rabbit IgG (100 μg or 400 μg; PeproTech 500-P00) in sterile 1×PBS (total volume of 100 μl). All antibodies were administered intratumorally (50 μl) at five injection sites and peritumorally, subcutaneously (50 μl) at five injection sites. […] Tumor length and width were measured every two to three days. […] Tumor length and width were measured every two to three days (days 1, 3, 5, 8, 10, 12, 15, 17, 19 and 22).
Tumor volumes were calculated as (length×width (length+width)/2))×0.526 (Isaacs, Canc. […] The mean tumor volumes and standard errors were calculated (SigmaStat, Jandel Scientific, San Rafel, Calif.). […] Relative tumor volumes were calculated as (mean vt mean vo), where vt refers to tumor volume on a given day and vo is the volume of the same tumor at initiation of dosing (day 1). […] Probability values were calculated by the Mann-Whitney Rank Sum Test (SigmaStat).

| SMILES | Minimum T/C (absolute tumor volumes vs vehicle control) ([1]; 10 mg/kg sc BID, Day 15) | Tolerability (deaths or morbidity) ([1]; nude mice bearing AsPC-1 xenografts) | CFPAC tumor growth [2] | Growth of AsPC-1 tumors [3] | Minimum T/C (absolute tumor volumes vs vehicle control) ([4]; 10 mg/kg sc BID, Days 12 and 15) | Tolerability (deaths or morbidity) ([4]; nude mice bearing TSU-Pr1 xenografts) | pIC50 (trkA) | Growth of PC-3 tumors relative to vehicle control ([5]; 22 days) | Minimum T/C (absolute tumor volumes vs vehicle control) ([5]; day 19) |
| --- | --- | --- | --- | --- | --- | --- | --- | --- | --- |
| C[C@]12O[C@H](C[C@]1(O)CO)n1c3ccccc3c3c4c(c5c6ccccc6n2c5c31)CNC4=O [CEP-701] | 0.27 | well tolerated | insensitive | inhibited | 0.29 | well tolerated | – | – | – |
| CO[C@]1(CO)C[C@H]2O[C@]1(C)n1c3ccccc3c3c4c(c5c6ccccc6n2c5c31)C(=O)NC4 [CEP-751] | – | – | – | – | – | – | 8.52 | inhibited the growth of PC-3 tumors | 0.44 |
